Assay results: patent US10570436B2, “Method of analysing a sample including a microorganism of interest” (Spectromics Limited, priority 2014, dated 2020)
In brackets after ≈: the same amount, converted by molar mass.

Experiments:
E. coli K12 = experiment: Minimum inhibitory concentration (MIC), bioscreen spectrophotometer; format: cell-based; details: Escherichia coli, 24 h incubation at 37° C., bioscreen spectrophotometer at 600 nm
Excerpt: A range of different concentrations of antibiotic were used to establish the MIC employing a standardised method^17.

[1] = tested on: Staphylococcus epidermidis (Gram-positive); experiment: Susceptibility/resistance of the selected strain (Table 10); format: cell-based; details: Experimental Work 4
[2] = tested on: Psuedomonas aeruginosa (Gram-negative); experiment: as above; format: cell-based, Pseudomonas aeruginosa; details: Experimental Work 4
[3] = tested on: Staphylococcus aureus (Gram-positive); experiment: as above; format: cell-based; details: Experimental Work 4
S. aureus = experiment: UV-Vis spectroscopy with PC-DFA cluster plot, phenotypic shift after antibiotic exposure vs unexposed control; format: cell-based, Staphylococcus aureus
Excerpt: (§1) A first stage of data analysis involved the use of principal component analysis (PCA). […] Its aim is to simplify spectral data from a high number of variables into a smaller number of indices (each called a “principal component” or “PC”), simultaneously retaining the original data variance by identifying data patterns. This is achieved as each PC becomes a representation of a group of data with a linear relationship, at the same time being completely uncorrelated to the subsequent PC which corresponds to a different data dimension. PCs are arranged in a descending order in terms of the degree of original data variance they represent with the first PC representing the greatest amount of original data variance. Addition of all the PCs thus yields the entire original data variance, with the first 5 PCs nearly always corresponding to almost 95% of that variance^11,20-22.
In a second stage, discriminant function analysis (DFA), a supervised technique, was used. This chemometrics technique forms a model by taking into account the structure of data collected from the experiment, thus having a priori experimental knowledge. Using this knowledge it then discriminates data into groups (bacterial classes of treatment) based on the PCs obtained from the PCA in an attempt to reduce intra-group variance and widen inter-group variance^23.
For each strain, 3 mL of nutrient broth was inoculated with the overnight grown cells to a final OD600nm=0.1, followed by dispensing the samples as 200 μL aliquots in a sterile Corning 96 well plate (5 biological replicates per strain for each condition). All plates were sealed using sterile Breath-Easy sealing membranes to reduce sample evaporation. The plates were incubated at 37° C. with 200 rpm shaking for 150 min.
The plates were transferred to one of two BioTek Synergy HT microplate readers programmed for 30 min shaking with medium speed at 37° C. followed by a full scan (200-999 nm range) of all the samples with 2 nm resolution.
In general, unless otherwise stated, the material and methods for Experimental Work 4 were the same as for Experimental Work 3, except that a single Thermo Biomate 5 UV-Vis spectrometer across spectral range of 300-800 nm was used for data collection in Experimental Work 4.

S. epidermidis = experiment: as above; format: cell-based, Staphylococcus epidermidis; details: after both 10 minutes and 30 minutes
Excerpt: as §1
(§2) In a second stage, discriminant function analysis (DFA), a supervised technique, was used. This chemometrics technique forms a model by taking into account the structure of data collected from the experiment, thus having a priori experimental knowledge. […]
(§3) The plates were transferred to one of two BioTek Synergy HT microplate readers programmed for 30 min shaking with medium speed at 37° C. followed by a full scan (200-999 nm range) of all the samples with 2 nm resolution. […]

P. aeruginosa = experiment: as above; format: cell-based, Pseudomonas aeruginosa; details: after both 10 minutes and 30 minutes
Excerpt: as §1, §2, §3

SMILES	MIC (E. coli K12)	Sensitive / Resistant to antibiotic [1]	Sensitive / Resistant to antibiotic [2]	Sensitive / Resistant to antibiotic [3]	shift in the cluster plot (PC-DFA) (S. aureus; after 30 minutes exposure)	shift in the cluster plot (PC-DFA) (S. aureus; at 10 minutes exposure)	shift in the cluster plot (PC-DFA) (S. epidermidis)	shift in the cluster plot (PC-DFA) (P. aeruginosa)
NCC[C@H](O)C(=O)N[C@@H]1C[C@H](N)[C@@H](O[C@H]2O[C@H](CN)[C@@H](O)[C@H](O)[C@H]2O)[C@H](O)[C@H]1O[C@H]1O[C@H](CO)[C@@H](O)[C@H](N)[C@H]1O [Amikacin]	10 µg/mL (≈ 17.1 µM)	–	–	–	–	–	–	–
CC1(C)S[C@@H]2[C@H](NC(=O)[C@H](N)c3ccccc3)C(=O)N2[C@H]1C(=O)O [Ampicillin]	10 µg/mL (≈ 28.6 µM)	Resistant	Resistant	Sensitive	~1.5 units	minimal	minimal	minimal
O=C(O)c1cn(C2CC2)c2cc(N3CCNCC3)c(F)cc2c1=O [Ciprofloxacin]	–	Sensitive	Sensitive	Sensitive	–	–	–	–
COc1cc(Cc2cnc(N)nc2N)cc(OC)c1OC [Trimethoprim]	300 µg/mL (≈ 1030 µM)	Resistant	Resistant	Resistant	~4 units	minimal	~3 units	~3 units
